Earlier results on 1 molecule are cited in patent US8809210B2, “Low roughness high surface-energy, anti-microbial fabric” (priority 2009, dated 2014).

Structures are written as SMILES.

The conditions of the data set: when covalently bonded to a surface.

In the case of `CCCCCCCCCCCCCCCCCC[N+](C)(C)CCC[Si](OC)(OC)OC.[Cl-]` [Si-QAC, 3-(Trimethoxysilyl)-propyldimethyloctadecyl ammonium chloride], the antimicrobial activity entry is given as “antimicrobial activity”.
